Data as given in US3984531A, “Technetium-99m-tin-monofluorophosphate complex” (The Radiochemical Centre Limited, priority 1973, dated 1976).

Assays:
[1] = Subramanian and McAfee, Radiology 1971; cited from earlier work
[2] = long chain polyphosphate material; cited from earlier work
[3] = monoenergetic; cited from earlier work
[4] = compared with stannous chloride
[5] = skeletal imaging prior to 1971; cited from earlier work

Q: With tripolyphosphate as the molecule, how does the “skeletal uptake / localization (in words)” value [1] read?
A: Its value is “good skeletal uptake of activity”.

Q: What about the “stability with respect to hydrolysis (in words)” value [2] of the same molecule?
A: The value was “instability of the long chain polyphosphate material with respect to hydrolysis”.

Q: With `[99Tc]` [technetium-99m] as the molecule, how does the gamma emission energy [3] read?
A: The gamma emission energy was 140 KeV.

Q: Which “stability to hydrolysis in aqueous solution (in words)” value [4] does the source give for Stannous fluoride here?
A: The value was “more stable to hydrolysis in aqueous solution than stannous chloride”.

Q: For `[18FH]` [Fluorine-18, fluorine-18], which “scan performance (in words)” value [5] is on record?
A: The value was “good agent”.

Q: Which “scan performance (in words)” value [5] does the source give for `[85Sr]` [Strontium-85, strontium-85] here?
A: Its value is “poor quality scans”.

Q: For `[87Sr]` [Strontium-87m, strontium-87m], which “scan performance (in words)” value [5] is on record?
A: Its value is “high blood background”.
